Laboratory results from article PMC11475281, “A Novel Liver Cancer-Selective Histone Deacetylase Inhibitor Is Effective against Hepatocellular Carcinoma and Induces Durable Responses with Immunotherapy” (ACS Pharmacology & Translational Science, 2024).

Columns and labels:
[1] = tested on: NCI-60 panel cancer cells; assay: NCI-60 panel one-dose screen; format: cell-based; conditions: 10 μM
Protocol: To further investigate the cancer cell-type selectivity of these glycosylated HDACi, we screened STR-V-53 (10 μM) in the NCI 60 panel. […] The antiproliferative effect of STR-V-53 against Hep-G2 cells and its lack of growth inhibition in the NCI-60 panel strongly support the HCC cell-selective attribute of STR-V-53 and possibly other lead glycosylated HDACi identified herein.

healthy C57Bl/6 mice = assay: Maximum tolerated dose determination; format: in vivo; conditions: 100 mg/kg i.p. daily for 6 days
Protocol: (§1) Based on the data from the aforementioned in vitro studies, we selected STR-V-53 as a candidate for further evaluation in xenograft and murine models of HCC. Before the efficacy studies, we first determined the plasma stability (murine and human) and maximum tolerated dose (MTD) of STR-V-53 in healthy C57Bl/6 mice. […]. For MTD determination, STR-V-53 was administered via i.p. injection using a formulation containing excipients found in FDA-approved drugs—dimethylacetamide (DMA)/Cremophor RH 40 (CRH)/Water (10%/20%/70%)—that we developed.[17] […]
(§2) Then cells were treated with another 500 µL of 100 ug/mL PI staining at room temperature for 30 min. The cell cycle was analyzed with BD FACS Aria Illu analyzer, and the data were […]
(§3) The stability of STR-V-53 in murine and human plasmas was determined through a contract agreement with Cyprotex, an Evotec Company (https://www.cyprotex.com) […]
(§4) days in Kolliphor/DMA/water vehicle. We measured body weight and monitored daily food consumption, overall health, and mortality. […]
(§5) C57Bl/6 mice, 6–8 weeks old, 3 males and 3 females per treatment group, were injected intraperitoneally with STR-V-53 at […] in Kolliphor/DMA/water vehicle. Eight hours after the injection, organs were harvested and frozen at −80 °C for subsequent quantification by LC-

[2] = Plasma stability (Cyprotex); format: in vitro ADME
Protocol: as §1, §2, §3, §4, §5

HDAC5 = HDAC5 (Homo sapiens, UniProt Q9UQL6); assay: HDAC isoform inhibition (BPS Bioscience)
Sequence of HDAC5 (Q9UQL6 whole entry, canonical isoform): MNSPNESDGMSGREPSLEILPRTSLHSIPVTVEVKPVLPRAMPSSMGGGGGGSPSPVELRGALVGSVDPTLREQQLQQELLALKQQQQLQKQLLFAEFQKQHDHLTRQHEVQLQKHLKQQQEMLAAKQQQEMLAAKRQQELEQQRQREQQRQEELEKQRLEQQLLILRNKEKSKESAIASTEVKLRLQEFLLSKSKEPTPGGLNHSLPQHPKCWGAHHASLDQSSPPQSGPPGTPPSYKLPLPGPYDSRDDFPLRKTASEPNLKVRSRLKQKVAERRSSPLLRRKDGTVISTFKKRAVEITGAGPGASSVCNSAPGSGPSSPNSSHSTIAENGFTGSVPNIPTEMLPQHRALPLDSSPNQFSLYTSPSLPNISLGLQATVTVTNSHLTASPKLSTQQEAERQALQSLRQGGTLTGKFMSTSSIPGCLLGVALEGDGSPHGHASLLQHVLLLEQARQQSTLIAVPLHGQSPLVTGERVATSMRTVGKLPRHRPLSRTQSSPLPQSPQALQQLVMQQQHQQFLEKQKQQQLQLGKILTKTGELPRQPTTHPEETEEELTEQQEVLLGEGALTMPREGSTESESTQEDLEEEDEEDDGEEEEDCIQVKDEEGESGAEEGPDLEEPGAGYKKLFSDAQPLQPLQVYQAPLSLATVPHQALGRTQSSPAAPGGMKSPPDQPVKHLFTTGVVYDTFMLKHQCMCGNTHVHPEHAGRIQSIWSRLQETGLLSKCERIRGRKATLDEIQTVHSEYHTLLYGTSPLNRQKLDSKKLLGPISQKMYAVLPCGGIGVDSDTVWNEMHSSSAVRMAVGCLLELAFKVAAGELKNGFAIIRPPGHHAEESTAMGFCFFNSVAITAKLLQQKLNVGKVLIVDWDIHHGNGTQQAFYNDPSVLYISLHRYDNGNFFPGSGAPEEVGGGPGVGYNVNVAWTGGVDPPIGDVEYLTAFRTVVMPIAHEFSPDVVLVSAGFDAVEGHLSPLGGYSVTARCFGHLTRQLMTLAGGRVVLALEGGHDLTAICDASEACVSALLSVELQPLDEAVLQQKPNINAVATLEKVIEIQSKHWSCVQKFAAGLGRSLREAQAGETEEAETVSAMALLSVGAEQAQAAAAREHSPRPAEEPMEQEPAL

[3] = Tissue distribution by LC-MS; format: in vivo; conditions: both sexes, healthy mice, i.p. 25 mg/kg
Protocol: To determine if liver tissue accumulation plays a role in the observed in vivo efficacy of STR-V-53, we used LC-MS to evaluate the distribution of STR-V-53 in selected tissues (liver and lungs) and plasma. We analyzed samples from healthy mice exposed to STR-V-53 (i.p. injection) at 25 mg/kg for 8 h. […] The average level of STR-V-53 in circulation in the plasma of healthy mice was ∼ […] 8 h postinjection. In contrast, the level of STR-V-53 in the liver was approximately 4 times its plasma level (Figure 5d). […]
for another 48 h. Cells were washed with cold 1x PBS solution twice and trypsinized.
Subsequently, cells were collected using 5 mL 1x PBS buffer and fixed overnight at -20 °C using 70% ethanol. Cells were centrifuged in 1x PBS on day 2 at 4 °C with a spin speed of 3,000g, re-suspended in 1x PBS, and centrifuged again under the same condition. The supernatant was removed, and the cell pellets were re-suspended with 500 µL of 200 ug/mL RNase for 30 min.
as §2
The stability of STR-V-53 in murine and human plasmas was determined through a contract agreement with Cyprotex, an Evotec Company (https://www.cyprotex.com)
Maximum tolerated dose determination
C57BL/6 mice, 6–8 weeks old, 3 males and 3 females per treatment group, were injected […]
days in Kolliphor/DMA/water vehicle. We measured body weight and monitored daily food consumption, overall health, and mortality. On the eighth day, mice were sacrificed by cervical dislocation, and organs were harvested and frozen at −80 ◦C.
Tissue distribution studies
C57Bl/6 mice, 6–8 weeks old, 3 males and 3 females per treatment group, were injected […]
the injection, organs were harvested and frozen at −80 °C for subsequent quantification by LC-

cytochrome P450 = format: in vitro ADME; conditions: maximum tested concentration of 100 μM
Hep-G2 cells = assay: RNA-seq gene set enrichment analysis (Hallmark and GOBP GSEA); format: cell-based, human; conditions: 24 h
Protocol: To obtain transcriptome level evidence that may shed light on the HCC-selectivity and/or the enhanced potency of the combination of STR-V-53 with anti-PD-1 antibody, we performed RNA sequencing (RNA-seq) analysis on STR-V-53-treated Hep-G2 cells, incubated at IC50 and 2× IC50 for 24 h, relative to the untreated (DMSO) control. We first conducted gene set enrichment analysis (GSEA) using hallmark and gene ontology biological process (GOBP) gene sets to analyze the effect of STR-V-53 vs DMSO-treated control on the Hep-G2 transcriptome.[42],[43] […] Negative enrichment of the G2 M checkpoint pathway supports the finding that STR-V-53 induced S phase arrest in Hep-G2 cells (see Figure 4). […]
and allowed to grow for 48 hours.
RCF, with this washing step repeated twice. Next, using RNeasy Plus Mini Kit and Qiagen QIAcube […]
determined using a DeNovix spectrophotometer. Subsequently, quality control of the RNA samples was […]
(base call error rate of […]).
FASTQ files of samples were analyzed through the RNA-seq pipeline provided by the Gryder lab1. Reads were aligned to hg38 using STAR version 2.5.3a, and gene expression was calculated as Transcripts per Million mapped reads (TPM) using RSEM version 1.3.3 and filtered for coding genes. Differentially expressed genes lists were generated for each sample by calculating log2 fold change of the averaged sample TPM versus the averaged DMSO-treated control cells TPM and filtering for genes with |log2 fold change| > -1 and false discovery rate < 0.25. Hallmark2 and gene ontology biological processes (GOBP)3 gene set enrichment analysis (GSEA) was performed on the differentially expressed gene lists using the GSEA software (parameters: Run GSEAPreranked, Collapse/Remap- No_Collapse)4. GSEA results were interpreted and visualized using scripts provided by the Gryder lab1.Volcano plots were generated using DESeq2v1.41.1 and visualized with the ggplot2 R packages5,6. […]

O=C(CCCCCCn1cc(-c2ccc(O[C@H]3O[C@H](CO)[C@@H](O)[C@H](O)[C@H]3O)cc2)nn1)NO [STR-V-53]
Mean cell growth in NCI-60 panel [1]: 99.6% | Body weight as an indicator of toxicity (healthy C57Bl/6 mice): no significant body weight loss | half-life ([2]; human plasma): > 1200 min | half-life ([2]; mouse, murine plasma): 46 min | IC50 (HDAC5): 7 µM | Kp at 8 h ([3]; C57Bl/6, mouse, liver (relative to plasma), ip, 8 h, read-out: Level in the liver relative to plasma level): ~4 | concentration at 8 h ([3]; C57Bl/6, mouse, plasma, ip, 8 h postinjection, read-out: Average level in plasma): ~0.01 ng/mL | Level in the lungs ([3]; 8 h): below the detection limit | Cytochrome P450 inhibition (cytochrome P450): no inhibition | NES, G2/M checkpoint (Hallmark GSEA) (Hep-G2 cells; 2× IC50 (20 μM)): −2.2 | NES, MYC targets v1 (Hallmark GSEA) (Hep-G2 cells; 2× IC50 (20 μM)): −2.3 | NES, MYC targets v2 (Hallmark GSEA) (Hep-G2 cells; 2× IC50 (20 μM)): −2.6 | NES, PI3K/Akt/mTOR signaling (Hallmark GSEA) (Hep-G2 cells; 2× IC50 (20 μM)): −1.7 | NES, antimicrobial humoral immune response mediated by an antimicrobial peptide (GOBP GSEA) (Hep-G2 cells; 2× IC50 (20 μM)): 1.9 | NES, cytokine-mediated signaling pathway (GOBP GSEA) (Hep-G2 cells; 2× IC50 (20 μM)): −1.4 | NES, glucose-regulated transcription genes (GOBP GSEA) (Hep-G2 cells; 2× IC50 (20 μM)): −1.8 | NES, humoral immune response (GOBP GSEA) (Hep-G2 cells; 2× IC50 (20 μM)): 1.7 | NES, innate immune response in the mucosa (GOBP GSEA) (Hep-G2 cells; 2× IC50 (20 μM)): 2.3 | NES, p53 pathway (Hallmark GSEA) (Hep-G2 cells; 2× IC50 (20 μM)): 1.6 | NES, positive regulation of glucose import (GOBP GSEA) (Hep-G2 cells; 2× IC50 (20 μM)): −1.6 | NES, G2/M checkpoint (Hallmark GSEA) (Hep-G2 cells; IC50 (10 μM)): −2.9 | NES, MYC targets v1 (Hallmark GSEA) (Hep-G2 cells; IC50 (10 μM)): −2.6 | NES, MYC targets v2 (Hallmark GSEA) (Hep-G2 cells; IC50 (10 μM)): −2.3 | NES, antimicrobial humoral immune response mediated by an antimicrobial peptide (GOBP GSEA) (Hep-G2 cells; IC50 (10 μM)): 1.9 | NES, glucose-regulated transcription genes (GOBP GSEA) (Hep-G2 cells; IC50 (10 μM)): −1.8 | NES, humoral immune response (GOBP GSEA) (Hep-G2 cells; IC50 (10 μM)): 1.9 | NES, innate immune response in the mucosa (GOBP GSEA) (Hep-G2 cells; IC50 (10 μM)): 2.1
